# Measurements reported in patent publication US20230399312A1, “SUBSTITUTED PYRIMIDINES AND METHODS OF USE” (THERAVANCE BIOPHARMA R&D IP, LLC, priority 2020, published 2023).
# What was measured:
# [1] = system: TGF-β-stimulated SMAD3 phosphorylation in BEAS-2B cells; experiment: Cellular ALK5 potency assay, inhibition of TGF-β stimulated pSMAD3 formation in BEAS-2B cells; assay type: cell-based; settings: Homo sapiens, pSMAD3, TGF-β 10 ng/mL, read-out: BEAS2B pIC50 (converted)
# Summary of the method: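 Reported as pIC50, potency reflects dose-dependent loss of AlphaLISA pSMAD3 signal versus TGF-β-stimulated, compound-free BEAS-2B cells. Compound was applied for 1 h in BSA-containing HBSS buffer before a 30-min challenge with TGF-β at 10 ng/mL final.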
# [2] = target: T1, recombinant human ALK5 (TGF-βR1) protein (Homo sapiens, UniProt P36897); experiment: Biochemical ALK5 (TGF-βR1) assay to measure pKi (LANCE Ultra ULight kinase assay); settings: apparent pKi, converted from pIC50 by Cheng-Prusoff
# T1 construct: purchased Life Technologies PR9075A
# T1 sequence (P36897 34-503): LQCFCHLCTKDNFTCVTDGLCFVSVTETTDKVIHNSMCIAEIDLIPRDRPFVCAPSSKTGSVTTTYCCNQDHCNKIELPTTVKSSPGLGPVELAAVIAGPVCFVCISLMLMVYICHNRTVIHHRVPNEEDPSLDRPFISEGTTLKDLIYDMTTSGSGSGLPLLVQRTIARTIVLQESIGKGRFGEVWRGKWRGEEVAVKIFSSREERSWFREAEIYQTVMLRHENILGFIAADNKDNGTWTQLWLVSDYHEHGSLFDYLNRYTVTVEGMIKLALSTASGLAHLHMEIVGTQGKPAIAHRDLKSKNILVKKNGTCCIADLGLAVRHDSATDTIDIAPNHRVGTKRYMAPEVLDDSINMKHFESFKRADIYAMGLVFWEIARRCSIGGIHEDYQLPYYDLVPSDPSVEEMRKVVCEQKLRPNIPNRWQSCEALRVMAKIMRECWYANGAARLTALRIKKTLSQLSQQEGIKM
# Summary of the method: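 Dose-response series of each compound were preincubated with the kinase for 60 minutes at room temperature. Phosphorylation proceeded for 60 minutes at 37 °C after ATP addition, was quenched with EDTA, and was detected with a europium anti-phospho-Thr1342 antibody by TR-FRET; pKi was calculated from pIC50.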
Structure (SMILES),IC50 [1] [nM],Ki [2] [nM]
"Cc1cccc(-c2nccc(Nc3ccnc(Nc4csc(C(=O)OC[C@H]5CC[C@H](N)CC5)c4)n3)n2)n1 [Compound 590, (4-aminocyclohexyl)methyl 4-[[4-[[2-(6-methyl-2-pyridyl)pyrimidin-4-yl]amino]pyrimidin-2-yl]amino]thiophene-2-carboxylate]",25.1 to 158,0.0398 to 0.316
"Cc1cccc(-c2nccc(Nc3ccnc(Nc4csc(C(=O)OC5CCNCC5)c4)n3)n2)n1 [Compound 591, 4-piperidyl 4-[[4-[[2-(6-methyl-2-pyridyl)pyrimidin-4-yl]amino]pyrimidin-2-yl]amino]thiophene-2-carboxylate]",25.1 to 158,0.0398 to 0.316
"Cc1cccc(-c2nccc(Nc3ccnc(Nc4ncc(C(=O)OC[C@H]5CCCN5)s4)n3)n2)n1 [Compound 592, [(2R)-pyrrolidin-2-yl]methyl 2-[[4-[[2-(6-methyl-2-pyridyl)pyrimidin-4-yl]amino]pyrimidin-2-yl]amino]thiazole-5-carboxylate]",25.1 to 158,3.98 to 31.6
"Cc1cccc(-c2nccc(Nc3ccnc(Nc4nc(C(=O)OC[C@H]5CCCN5)cs4)n3)n2)n1 [Compound 593, [(2R)-pyrrolidin-2-yl]methyl 2-[[4-[[2-(6-methyl-2-pyridyl)pyrimidin-4-yl]amino]pyrimidin-2-yl]amino]thiazole-4-carboxylate]",25.1 to 158,0.398 to 3.16
"Cc1cccc(-c2nccc(Nc3ccnc(Nc4ccc(C(=O)O[C@@H]5CCCNC5)nc4)n3)n2)n1 [Compound 594, [(3R)-3-piperidyl] 5-[[4-[[2-(6-methyl-2-pyridyl)pyrimidin-4-yl]amino]pyrimidin-2-yl]amino]pyridine-2-carboxylate]",200 to 1260,0.0398 to 0.316
Cc1cccc(-c2nccc(Nc3ccnc(Nc4cncc(C(=O)OC[C@@H]5CCCNC5)c4)n3)n2)n1 [Compound 595],25.1 to 158,0.398 to 3.16
"Cc1cccc(-c2nccc(Nc3ccnc(Nc4ccc(C(=O)OC5CCCNCC5)nc4)n3)n2)n1 (centres unmarked) [Compound 596, azepan-4-yl 5-[[4-[[2-(6-methyl-2-pyridyl)pyrimidin-4-yl]amino]pyrimidin-2-yl]amino]pyridine-2-carboxylate]",200 to 1260,0.0398 to 0.316
"Cc1cccc(-c2nccc(Nc3ccnc(Nc4ccc(C(=O)OC[C@@H]5CCCCN5)nc4)n3)n2)n1 [Compound 597, [(2S)-2-piperidyl]methyl 5-[[4-[[2-(6-methyl-2-pyridyl)pyrimidin-4-yl]amino]pyrimidin-2-yl]amino]pyridine-2-carboxylate]",25.1 to 158,0.0398 to 0.316
"Cc1cccc(-c2nccc(Nc3ccnc(Nc4csc(C(=O)OCCN5CCC[C@@H](N)C5)c4)n3)n2)n1 [Compound 598, 2-[(3R)-3-amino-1-piperidyl]ethyl 4-[[4-[[2-(6-methyl-2-pyridyl)pyrimidin-4-yl]amino]pyrimidin-2-yl]amino]thiophene-2-carboxylate]",25.1 to 158,0.0398 to 0.316
"Cc1cccc(-c2nccc(Nc3ccnc(Nc4csc(C(=O)OCCN5CCN6CCCC6C5)c4)n3)n2)n1 (centres unmarked) [Compound 599, 2-(3,4,6,7,8,8a-hexahydro-1H-pyrrolo[1,2-a]pyrazin-2-yl)ethyl 4-[[4-[[2-(6-methyl-2-pyridyl)pyrimidin-4-yl]amino]pyrimidin-2-yl]amino]thiophene-2-carboxylate]",25.1 to 158,0.0398 to 0.316
"Cc1cccc(-c2nccc(Nc3ccnc(Nc4csc(C(=O)OC[C@H]5CCCNC5)c4)n3)n2)n1 [Compound 600, [(3S)-3-piperidyl]methyl 4-[[4-[[2-(6-methyl-2-pyridyl)pyrimidin-4-yl]amino]pyrimidin-2-yl]amino]thiophene-2-carboxylate]",25.1 to 158,0.0398 to 0.316
"Cc1cccc(-c2nccc(Nc3ccnc(Nc4cc(C(=O)O[C@@H]5CCNC5)ccn4)n3)n2)n1 [Compound 601, [(3R)-pyrrolidin-3-yl] 2-[[4-[[2-(6-methyl-2-pyridyl)pyrimidin-4-yl]amino]pyrimidin-2-yl]amino]pyridine-4-carboxylate]",200 to 1260,3.98 to 31.6
"Cc1cccc(-c2nccc(Nc3ccnc(Nc4csc(C(=O)OCCC5CNC5)c4)n3)n2)n1 [Compound 602, 2-(azetidin-3-yl)ethyl 4-[[4-[[2-(6-methyl-2-pyridyl)pyrimidin-4-yl]amino]pyrimidin-2-yl]amino]thiophene-2-carboxylate]",25.1 to 158,0.0398 to 0.316
"Cc1cccc(-c2nccc(Nc3ccnc(Nc4cncc(CN5CC(C(=O)O)C5)c4)n3)n2)n1 [Compound 603, 1-[[5-[[4-[[2-(6-methyl-2-pyridyl)pyrimidin-4-yl]amino]pyrimidin-2-yl]amino]-3-pyridyl]methyl]azetidine-3-carboxylic acid]",1580 to 10000,0.0398 to 0.316
"Cc1cccc(-c2nccc(Nc3ccnc(Nc4ncc(N5C[C@@H](C)N[C@@H](C)C5)s4)n3)n2)n1 [Compound 604, N2-[5-[(3R,5S)-3,5-dimethylpiperazin-1-yl]thiazol-2-yl]-N4-[2-(6-methyl-2-pyridyl)pyrimidin-4-yl]pyrimidine-2,4-diamine]",200 to 1260,3.98 to 31.6
"Cc1cccc(-c2nccc(Nc3ccnc(Nc4ccc(C(=O)OC[C@H]5CNCCO5)nc4)n3)n2)n1 [Compound 605, [(2R)-morpholin-2-yl]methyl 5-[[4-[[2-(6-methyl-2-pyridyl)pyrimidin-4-yl]amino]pyrimidin-2-yl]amino]pyridine-2-carboxylate]",200 to 1260,0.0398 to 0.316
"Cc1cccc(-c2nccc(Nc3ccnc(Nc4cncc(C(=O)OCC5CCNCC5)c4)n3)n2)n1 [Compound 606, 4-piperidylmethyl 5-[[4-[[2-(6-methyl-2-pyridyl)pyrimidin-4-yl]amino]pyrimidin-2-yl]amino]pyridine-3-carboxylate]",25.1 to 158,0.398 to 3.16
"Cc1cccc(-c2nccc(Nc3ccnc(Nc4csc(C(=O)OCC5CCNCC5)c4)n3)n2)n1 [Compound 607, 4-piperidylmethyl 4-[[4-[[2-(6-methyl-2-pyridyl)pyrimidin-4-yl]amino]pyrimidin-2-yl]amino]thiophene-2-carboxylate]",25.1 to 158,0.0398 to 0.316
"Cc1cccc(-c2nccc(Nc3ccnc(Nc4cc(C(=O)OCC5CNC5)ccn4)n3)n2)n1 [Compound 608, azetidin-3-ylmethyl 2-[[4-[[2-(6-methyl-2-pyridyl)pyrimidin-4-yl]amino]pyrimidin-2-yl]amino]pyridine-4-carboxylate]",200 to 1260,3.98 to 31.6
"Cc1cccc(-c2nccc(Nc3ccnc(Nc4ncc(C5=CCNC5)s4)n3)n2)n1 [Compound 609, N2-[5-(2,5-dihydro-1H-pyrrol-3-yl)thiazol-2-yl]-N4-[2-(6-methyl-2-pyridyl)pyrimidin-4-yl]pyrimidine-2,4-diamine]",25.1 to 158,0.398 to 3.16
"Cc1cccc(-c2nccc(Nc3ccnc(Nc4ccnc(C(=O)O)c4)n3)n2)n1 [Compound 610, 4-[[4-[[2-(6-methyl-2-pyridyl)pyrimidin-4-yl]amino]pyrimidin-2-yl]amino]pyridine-2-carboxylic acid]",1580 to 10000,0.0398 to 0.316
"Cc1cccc(-c2nccc(Nc3ccnc(Nc4nc(C(=O)OC[C@@H]5CCNC5)cs4)n3)n2)n1 [Compound 611, [(3R)-pyrrolidin-3-yl]methyl 2-[[4-[[2-(6-methyl-2-pyridyl)pyrimidin-4-yl]amino]pyrimidin-2-yl]amino]thiazole-4-carboxylate]",200 to 1260,0.398 to 3.16
